Holding throughout (assay): DTP human tumour cell line panel, 48 h
For assay [1], the system named is UACC-62.
The test system of assay [2] is SW-620.
In assay [3] the test system is SF-539.
Assay [4] has as its system SN12C.
Assay [5] deals with SNB-19.
For assay [6], the system named is NCI-H226.
Assay [7] deals with MOLT-4.
Assay [8] relates to ACHN.
For assay [9], the system named is TK-10.
The subject of assay [10] is SK-MEL-2.
For assay [11], the system named is 786-0.
Assay [12] relates to EKVX.
Assay [13] concerns U-251.
Assay [14] relates to UO-31.
Assay [15] deals with HCC 2998.

Molecules are shown by their SMILES.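 Cultured in 96-well plates, cells were exposed to test compound for 48 hours across five concentrations. GI50 is the concentration that inhibits growth by half.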 Activity calls are given as the source filed them. No stated cut-off is given here; in the data, active = GI50 up to about 1.1 µM and inactive = higher. A value given as a limit tells only on which side of the number the result lay.

The term GI50 denotes the concentration at which growth is held to half of that of the control.

In the case of `CCOC(=O)NC(=O)c1cn(CCN2CCNCC2)c(=O)[nH]c1=O`, the GI50 in assay [1], in assay [2], in assay [3], in assay [4], in assay [5] and in [6] was > 100 µM (inactive) in each case. Besides, the GI50 in assay [7], in assay [8], in assay [9], in [10], in assay [11] and in [12] was > 100 µM (inactive) in each case. Moreover, the GI50 in assay [13] was > 100 µM (inactive).

Take `CCOC(=O)C1C(=O)C(=O)N2CCc3c([nH]c4ccccc34)C12` (centres undefined): the GI50 in [14], in [1], in [2], in [3], in [4] and in assay [5] was > 100 µM (inactive) in each case. Also, the GI50 in assay [7], in [9], in [10], in [15], in assay [11] and in assay [12] was > 100 µM (inactive) throughout. The GI50 in [13] is > 100 µM (inactive).

As to `O=S1(=O)CS(=O)(=O)OCCCCCO1`, the GI50 in assay [14], in assay [1], in [2], in assay [4], in assay [5] and in assay [6] was > 100 µM (inactive) each time. For the same compound, the GI50 in assay [8], in assay [9], in [10], in assay [15], in [11] and in assay [12] was > 100 µM (inactive) each time. For the same compound, in assay [13], the GI50 is > 100 µM (inactive).

Consider `Cc1cn(C2CC(CCCO)C(CO)O2)c(=O)[nH]c1=O` (centres undefined), for which the GI50 in assay [14], in assay [1], in assay [2], in [4], in assay [5] and in [8] was > 100 µM (inactive) throughout. Also, the GI50 in assay [9], in assay [10], in [15], in [11], in assay [12] and in assay [13] was > 100 µM (inactive) throughout.

As for `CC(C)C(CCOS(=O)(=O)O)CCC(C)[C@H]1[C@@H](O)C(O)C2[C@]3(O)C[C@@H](O)C4(O)C[C@@H](O)CC[C@]4(C)C3CC[C@@]21C` (some centres undefined), the GI50 in assay [14], in [1], in [2], in assay [3], in assay [4] and in [5] was > 100 µM (inactive) throughout. Also, the GI50 in assay [6], in [8], in assay [9], in assay [10], in assay [15] and in assay [11] was > 100 µM (inactive) each time. The GI50 in assay [12] and in assay [13] was > 100 µM (inactive) each time.

Regarding `C[N+]1(C)C/C(=C\c2ccc(O)cc2)C(=O)/C(=C/c2ccc(O)cc2)C1`, the GI50 is > 100 µM (inactive) in assay [14]; 64.9 µM (inactive) in [1]; > 100 µM (inactive) in [2]; 65 µM (inactive) in assay [3]; 18.5 µM (inactive) in assay [4]; > 100 µM (inactive) in [5]. The GI50 was 47.4 µM (inactive) in assay [7]; > 100 µM (inactive) in assay [8]; 18 µM (inactive) in assay [9]; > 100 µM (inactive) in assay [15]; > 100 µM (inactive) in [11]; > 100 µM (inactive) in [12]. Also, the GI50 in assay [13] was 49.5 µM (inactive).

Consider `COc1ccc(CNc2cnc3cc(N)ccc3n2)cc1OC`, for which the GI50 in assay [14], in [2], in [3], in [4], in assay [5] and in assay [6] was > 100 µM (inactive) in each case. The GI50 in [7], in [8], in [9], in assay [10], in assay [15] and in assay [11] was > 100 µM (inactive) in each case. Moreover, in assay [12], the GI50 was > 100 µM (inactive).

Consider `c1ccc2nc(-c3ccc4c(c3)OCO4)ccc2c1`, for which the GI50 in assay [14] is 20 µM (inactive); in assay [2] it was 77.6 µM (inactive); in assay [3], 56.9 µM (inactive); in assay [4], 43.2 µM (inactive); in assay [5], 73.5 µM (inactive); in assay [6], 21.6 µM (inactive). In addition, the GI50 was 26.5 µM (inactive) in [8]; 64 µM (inactive) in [9]; 41.3 µM (inactive) in assay [10]; 38.3 µM (inactive) in assay [15]; 76.7 µM (inactive) in [11]; 24.9 µM (inactive) in assay [12]. Further, the GI50 in assay [13] was 53.6 µM (inactive).

`NC(CCC(=O)NC(CSC(=O)N(O)c1ccccc1)C(=O)NCC(=O)O)C(=O)O` (centres undefined): the GI50 in assay [14] was 918 µM (inactive); in assay [1], > 1000 µM (inactive); in assay [2], > 1000 µM (inactive); in assay [3], > 1000 µM (inactive); in assay [4] it was > 1000 µM (inactive); in assay [5] it was > 1000 µM (inactive). Further, the GI50 in assay [6], in assay [8], in assay [9], in assay [10], in assay [15] and in [11] was > 1000 µM (inactive) in each case. Further, the GI50 in assay [12] and in [13] was > 1000 µM (inactive) each time.

With `O=C(O)/C=C/n1c2ccccc2c(=O)c2ccccc21`, the GI50 in assay [14], in assay [1], in [2], in [3], in assay [4] and in assay [5] was > 100 µM (inactive) throughout. Moreover, the GI50 in assay [6], in assay [7], in assay [8], in assay [10], in assay [15] and in assay [11] was > 100 µM (inactive) each time. Further, the GI50 in assay [12] and in assay [13] was > 100 µM (inactive) in each case.

With `OC1CC(O)O[C@H](c2ccccc2)C1` (some centres undefined), the GI50 in assay [14], in assay [1], in assay [2], in assay [3], in [4] and in assay [5] was > 100 µM (inactive) each time. Further, the GI50 in assay [6], in assay [7], in assay [8], in assay [9], in [15] and in assay [11] was > 100 µM (inactive) each time. Further, the GI50 in assay [12] is > 100 µM (inactive).

Turning to `CN(C)CC/C(=N\Nc1c(F)c(F)c(F)c(F)c1F)c1ccccc1`, the GI50 in [14] is 7.38 µM (inactive); in assay [1], 34.5 µM (inactive); in [2], 74.8 µM (inactive); in assay [3], 40.2 µM (inactive); in assay [4], 37.8 µM (inactive); in assay [5] it was 54.1 µM (inactive). In addition, the GI50 in [7] is 19.2 µM (inactive); in assay [8], 30.9 µM (inactive); in [9], 62.7 µM (inactive); in [10], 32.7 µM (inactive); in [11], 82.4 µM (inactive); in [12] it was > 100 µM (inactive). Besides, the GI50 in assay [13] is 42.4 µM (inactive).

As to `Cc1c2cc[n+](C)cc2c(C)c2c1[nH]c1ccc(Oc3ccccc3)cc12`, the GI50 was 7.29 µM (inactive) in assay [14]; 1.51 µM (inactive) in assay [1]; 0.843 µM (active) in [2]; 1.88 µM (inactive) in [3]; 0.381 µM (active) in [4]; 0.67 µM (active) in assay [5]. Besides, the concentration for 50% growth inhibition (GI50) in assay [6] is 0.492 µM (active); in assay [7], 2.21 µM (inactive); in [8], 2.05 µM (inactive); in assay [10], 1.1 µM (active); in [15], 2.61 µM (inactive); in assay [11], 0.504 µM (active). In addition, the GI50 is 3.61 µM (inactive) in [12] and 0.308 µM (active) in [13].

For the compound `CC(=O)OC1C[C@H]2C(OC(=O)c3ccccc3)C3C4(OC(C)=O)COC4C[C@H](OC(C)=O)[C@@]3(C)C(OC(C)=O)[C@H](OC(C)=O)C(=C1C)C2(C)C` (some centres undefined), the GI50 in assay [14] is 24.9 µM (inactive); in [1], 77.1 µM (inactive); in assay [2] it was 57.9 µM (inactive); in assay [3], 50 µM (inactive); in assay [4], 51.2 µM (inactive); in [5] it was 24.2 µM (inactive). The GI50 was 34.1 µM (inactive) in assay [6]; 20.1 µM (inactive) in [7]; 21 µM (inactive) in [8]; 25.7 µM (inactive) in assay [9]; 33.3 µM (inactive) in [10]; 35.9 µM (inactive) in assay [11]. Moreover, the GI50 in [12] is 50.7 µM (inactive).

Consider `CC(=O)Nc1ccc(C(=O)NN2C(=O)C(Cl)C2c2ccc([N+](=O)[O-])cc2)cc1` (centres undefined), for which the GI50 in assay [14], in [1], in assay [2], in [3], in assay [4] and in assay [5] was > 100 µM (inactive) in each case. Besides, the GI50 in assay [6], in [7], in assay [8], in assay [9], in [10] and in [11] was > 100 µM (inactive) throughout. For the same compound, the GI50 in assay [12] and in assay [13] was > 100 µM (inactive) each time.

The values are drawn from ChEMBL document CHEMBL1201862, “PubChem BioAssay data set” (2004).
